From the supplement of paper PMC11061612

Legend:
[1] = test system: OVCAR-4 (Ovarian Carcinoma); test: combination Emax (second highest fraction inhibited in the dose matrix, 72 h); higher = more inhibition; extreme values may be limits of the assay
How it was run: (§1)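 Cell lines grown in DMEM/F12 or RPMI with 10% FBS were plated in 1536-well plates and held 24 hours at 37°C, 5% CO2 before 72 hours of exposure to two-drug dose matrices, with DMSO typically at 0.2%. CellTiter-Glo 2.0 luminescence gave viability, which was converted to inhibition. Vehicle wells were set to 0 and blank wells to 1. Combination Emax is the second-highest inhibition in the matrix, and Bliss excess is the observed combination effect minus the expected EA + EB − EA·EB, where EA and EB are the single-agent effects.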

[2] = test system: HGC-27 (Gastric Carcinoma); test: as above
How it was run: as §1

[3] = test system: HOP-62 (Lung Adenocarcinoma); test: as above
How it was run: as §1

[4] = test system: SCC-15 (Oral Cavity Carcinoma); test: as above
How it was run: as §1

[5] = test system: NEC8 (Other Solid Carcinomas); test: as above
How it was run: as §1

[6] = test system: OE19 (Esophageal Adenocarcinoma); test: as above
How it was run: as §1

[7] = test system: TE-1 (Esophageal Squamous Cell Carcinoma); test: as above
How it was run: as §1

[8] = test system: HSC-4 (Oral Cavity Carcinoma); test: as above
How it was run: as §1

[9] = test system: NUGC-3 (Gastric Carcinoma); test: as above
How it was run: as §1

[10] = test system: NCI-H1915 (Non-Small Cell Lung Carcinoma); test: as above
How it was run: as §1

[11] = test system: KMOE-2 (Acute Myeloid Leukemia); test: as above
How it was run: as §1

[12] = test system: C-4-I (Cervical Carcinoma); test: as above
How it was run: as §1

[13] = test system: OSC-20 (Oral Cavity Carcinoma); test: as above
How it was run: as §1

[14] = test system: VA-ES-BJ (Other Solid Carcinomas); test: as above
How it was run: as §1

PWR-1E (Non-Cancerous) [15] = test: as above
How it was run: as §1

[16] = test system: SU8686 (Pancreatic Carcinoma); test: as above
How it was run: as §1

[17] = test system: OVCAR-4 (Ovarian Carcinoma); test: Bliss excess, mean over the matrix (fraction); higher = more synergy
How it was run: as §1

[18] = test system: HGC-27 (Gastric Carcinoma); test: as above
How it was run: as §1

[19] = test system: HOP-62 (Lung Adenocarcinoma); test: as above
How it was run: as §1

[20] = test system: SCC-15 (Oral Cavity Carcinoma); test: as above
How it was run: as §1

[21] = test system: NEC8 (Other Solid Carcinomas); test: as above
How it was run: as §1

[22] = test system: OE19 (Esophageal Adenocarcinoma); test: as above
How it was run: as §1

[23] = test system: TE-1 (Esophageal Squamous Cell Carcinoma); test: as above
How it was run: as §1

[24] = test system: HSC-4 (Oral Cavity Carcinoma); test: as above
How it was run: as §1

[25] = test system: NUGC-3 (Gastric Carcinoma); test: as above
How it was run: as §1

[26] = test system: NCI-H1915 (Non-Small Cell Lung Carcinoma); test: as above
How it was run: as §1

[27] = test system: KMOE-2 (Acute Myeloid Leukemia); test: as above
How it was run: as §1

[28] = test system: C-4-I (Cervical Carcinoma); test: as above
How it was run: as §1

[29] = test system: OSC-20 (Oral Cavity Carcinoma); test: as above
How it was run: as §1

[30] = test system: VA-ES-BJ (Other Solid Carcinomas); test: as above
How it was run: as §1

PWR-1E (Non-Cancerous) [31] = test: as above
How it was run: as §1

[32] = test system: SU8686 (Pancreatic Carcinoma); test: as above
How it was run: as §1
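Throughout, for Bliss excess, mean over the matrix: after 72 h of two-drug dosing.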

SMILES	combination Emax [1]	combination Emax [2]	combination Emax [3]	combination Emax [4]	combination Emax [5]	combination Emax [6]	combination Emax [7]	combination Emax [8]	combination Emax [9]	combination Emax [10]	combination Emax [11]	combination Emax [12]	combination Emax [13]	combination Emax [14]	combination Emax (PWR-1E (Non-Cancerous) [15])	combination Emax [16]	Bliss excess [17]	Bliss excess [18]	Bliss excess [19]	Bliss excess [20]	Bliss excess [21]	Bliss excess [22]	Bliss excess [23]	Bliss excess [24]	Bliss excess [25]	Bliss excess [26]	Bliss excess [27]	Bliss excess [28]	Bliss excess [29]	Bliss excess [30]	Bliss excess (PWR-1E (Non-Cancerous) [31])	Bliss excess [32]
COc1nnc2ccc(N3CCC(c4ccc(OCCN5CCN(C)C(=O)[C@H]5C)cc4)CC3)nn12 [AZD5153] + CN(CC[C@H](CSC1=CC=CC=C1)NC2=C(C=C(C=C2)S(=O)(=O)NC(=O)C3=CC=C(C=C3)N4CCC(CC4)[C@H](C5=CC=CC=C5C6=CC=C(C=C6)Cl)O)S(=O)(=O)C(F)(F)F)CCO [AZD4320] (first compound max 1 µM, 7x7, partner max 1 µM)	0.458	0.772	0.635	0.39	0.962	0.501	0.485	0.217	0.639	0.57	0.993	0.762	0.132	0.517	0.714	0.0559	0.0377	-0.0329	0.011	0.001	0.0236	0.0208	-0.0193	-0.0287	0.0423	0.0678	0.0295	0.0692	-0.0543	0.0839	0.0243	-0.0373
C[C@@H](c1ccc2nccn2c1)n1nnc2ncc(-c3cnn(C)c3)nc21 [Savolitinib] + CN(CC[C@H](CSC1=CC=CC=C1)NC2=C(C=C(C=C2)S(=O)(=O)NC(=O)C3=CC=C(C=C3)N4CCC(CC4)[C@H](C5=CC=CC=C5C6=CC=C(C=C6)Cl)O)S(=O)(=O)C(F)(F)F)CCO [AZD4320] (first compound max 1 µM, 7x7, partner max 1 µM)	0.126	0.233	0.122	0.29	0.302	0.22	0.289	0.24	0.279	0.132	0.59	0.234	0.129	0.182	0.211	0.173	-0.0293	-0.0098	-0.0729	-0.0604	-0.0021	-0.0091	-0.0316	-0.0591	-0.0429	-0.0519	-0.0537	-0.0399	-0.0626	-0.029	-0.0221	-0.0255
CC(=O)c1c(C)c2cnc(Nc3ccc(N4CCNCC4)cn3)nc2n(C2CCCC2)c1=O [Palbociclib] + CN(CC[C@H](CSC1=CC=CC=C1)NC2=C(C=C(C=C2)S(=O)(=O)NC(=O)C3=CC=C(C=C3)N4CCC(CC4)[C@H](C5=CC=CC=C5C6=CC=C(C=C6)Cl)O)S(=O)(=O)C(F)(F)F)CCO [AZD4320] (first compound max 10 µM, 7x7, partner max 1 µM)	0.22	0.764	0.332	0.206	0.209	0.467	0.439	0.0868	0.714	0.491	0.96	0.372	0.182	0.309	0.278	0.0398	-0.0354	0.0123	-0.0777	-0.0694	-0.0337	-0.0369	-0.0322	-0.0833	-0.0659	-0.0273	-0.0213	-0.0686	-0.0381	-0.0288	-0.0204	-0.0447
